Assay results as given in PubChem BioAssay (NCI).
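Cells were grown in 96-well plates and exposed to each compound for 48 hours at five concentrations; endpoints were interpolated linearly between bracketing concentrations, or set to the highest concentration if not reached. At the TGI there is no net growth.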

How the values were obtained:
Experiment in all cases: growth of human tumour cells (NCI), 48 h
[1] = system: EKVX NSCLC
[2] = system: SNB-75 CNS
[3] = system: MCF7 breast
[4] = system: UACC-62 melanoma
[5] = system: SK-MEL-28 melanoma
[6] = system: K-562 leukemia
[7] = system: RPMI-8226 leukemia
[8] = system: SK-OV-3 ovarian
[9] = system: SN12C renal
[10] = system: OVCAR-4 ovarian
[11] = system: DU-145 prostate
[12] = system: M14 melanoma
[13] = system: ACHN renal
[14] = system: SK-MEL-5 melanoma
[15] = system: OVCAR-8 ovarian
[16] = system: CAKI-1 renal
[17] = system: HOP-92 NSCLC
[18] = system: SF-295 CNS
[19] = system: HCT-116 colon
[20] = system: NCI-H522 lung
[21] = system: MDA-N
[22] = system: SF-268 CNS
[23] = system: TK-10 renal
[24] = system: IGROV1 ovarian
[25] = system: PC-3 prostate
[26] = system: SF-539 CNS
[27] = system: KM12 colon
[28] = system: MDA-MB-231 breast
[29] = system: NCI-H460 lung
[30] = system: SW-620 colon
[31] = system: BT-549 breast
[32] = system: HS 578T breast
[33] = system: OVCAR-5 ovarian
[34] = system: SK-MEL-2 melanoma
[35] = system: COLO 205 colon
[36] = system: MDA-MB-435
[37] = system: RXF 393 renal
[38] = system: HCT-15 colon
[39] = system: CCRF-CEM leukemia
[40] = system: UACC-257 melanoma
[41] = system: MALME-3M melanoma
[42] = system: LOX IMVI melanoma
[43] = system: OVCAR-3 ovarian
[44] = system: MOLT-4 leukemia
[45] = system: A549 NSCLC
[46] = system: NCI/ADR-RES ovarian
[47] = system: HOP-62 NSCLC
[48] = system: SNB-19 CNS
[49] = system: U251 CNS
[50] = system: NCI-H23 lung
[51] = system: 786-0 renal
[52] = system: HL-60(TB) leukemia
[53] = system: T-47D breast
[54] = system: HCC-2998 colon
[55] = system: HT29 colon
[56] = system: UO-31 renal
[57] = system: A498 renal
[58] = system: NCI-H226 lung

Measured: TGI

COc1ccc2nccc(/C=C/c3ccc(N(C)C)cc3)c2c1
7.49 µM: [36]
> 10 µM: [1] | [2] | [3] | [4] | [5] | [6] | [7] | [8] | [9] | [10] | [11] | [12] | [13] | [14] | [15] | [16] | [17] | [18] | [19] | [20] | [21] | [22] | [23] | [24] | [25] | [26] | [27] | [28] | [29] | [30] | [31] | [32] | [33] | [34] | [35] | [37] | [38] | [39] | [40] | [41] | [42] | [43] | [44] | [45] | [46] | [47] | [48] | [49] | [50] | [51] | [52] | [53] | [54] | [55] | [56] | [57] | [58]

CC(CN(C)C)C(C#N)(c1ccccc1)c1ccccc1 (centres undefined)
> 100 µM: [1] | [2] | [3] | [4] | [5] | [6] | [7] | [8] | [9] | [10] | [11] | [12] | [13] | [14] | [15] | [16] | [17] | [18] | [19] | [20] | [21] | [22] | [23] | [24] | [25] | [26] | [27] | [28] | [29] | [30] | [31] | [32] | [33] | [34] | [35] | [36] | [37] | [38] | [39] | [40] | [41] | [42] | [43] | [44] | [45] | [46] | [47] | [48] | [49] | [50] | [51] | [52] | [53] | [54] | [55] | [56] | [57] | [58]

COC(=O)C1=C(OC(=O)/C(=C/c2ccccc2)c2ccc([N+](=O)[O-])cc2)C(C(=O)OC)[C@@]2(O)[C@@H](C(=O)OC)[C@H](C)C[C@@H]1[C@@H]2C(=O)OC (some centres undefined)
> 100 µM: [1] | [2] | [3] | [4] | [5] | [6] | [7] | [8] | [9] | [10] | [11] | [12] | [13] | [14] | [15] | [16] | [17] | [18] | [19] | [20] | [21] | [22] | [23] | [24] | [25] | [26] | [27] | [28] | [29] | [30] | [31] | [32] | [33] | [34] | [35] | [36] | [37] | [38] | [39] | [40] | [41] | [42] | [43] | [44] | [45] | [46] | [47] | [48] | [49] | [50] | [51] | [52] | [53] | [54] | [55] | [56] | [57] | [58]
